Test results from article PMC8486176 (Cancer Science, 2021).
Ends that are not written are not given here. * marks the point of attachment. RhodamineB = CCN(CC)c1ccc2c(-c3ccccc3C(=O)*)c3ccc(=[N+](CC)CC)cc-3oc2c1

Test system: NUGC‐4 cells
Assay: Immunofluorescence binding of RhoB‐labeled peptides to fixed NUGC‐4 cells
Format: cell-based, human
Settings: ImageJ quantification, Figure 4C

RhoB‐CG7C: CG7C peptide labeled with rhodamine B, negative control (RhodamineB-CGGGGGGGC; cysteine pairing not given here)
mean fluorescence intensity (MFI): small positive MFI
